Tests used:
rSjNR-S = target: T1, rSjNR-S (Saccharina japonica, UniProt A0A977LKQ3); test: Griess colorimetric nitrite assay, single concentration; type: biochemical; conditions: 5 mM KNO3, 0.2 mM NADH, 100 mM HEPES pH 7.6, 10 μM FAD, 10 μM sodium molybdate, 10 mM MgCl2, 5 mM DTT, 24 °C
T1 construct: E. coli BL21(DE3) pCold-SUMO-10His, Ni-NTA, SUMO tag cut off
T1 sequence (A0A977LKQ3 1-705): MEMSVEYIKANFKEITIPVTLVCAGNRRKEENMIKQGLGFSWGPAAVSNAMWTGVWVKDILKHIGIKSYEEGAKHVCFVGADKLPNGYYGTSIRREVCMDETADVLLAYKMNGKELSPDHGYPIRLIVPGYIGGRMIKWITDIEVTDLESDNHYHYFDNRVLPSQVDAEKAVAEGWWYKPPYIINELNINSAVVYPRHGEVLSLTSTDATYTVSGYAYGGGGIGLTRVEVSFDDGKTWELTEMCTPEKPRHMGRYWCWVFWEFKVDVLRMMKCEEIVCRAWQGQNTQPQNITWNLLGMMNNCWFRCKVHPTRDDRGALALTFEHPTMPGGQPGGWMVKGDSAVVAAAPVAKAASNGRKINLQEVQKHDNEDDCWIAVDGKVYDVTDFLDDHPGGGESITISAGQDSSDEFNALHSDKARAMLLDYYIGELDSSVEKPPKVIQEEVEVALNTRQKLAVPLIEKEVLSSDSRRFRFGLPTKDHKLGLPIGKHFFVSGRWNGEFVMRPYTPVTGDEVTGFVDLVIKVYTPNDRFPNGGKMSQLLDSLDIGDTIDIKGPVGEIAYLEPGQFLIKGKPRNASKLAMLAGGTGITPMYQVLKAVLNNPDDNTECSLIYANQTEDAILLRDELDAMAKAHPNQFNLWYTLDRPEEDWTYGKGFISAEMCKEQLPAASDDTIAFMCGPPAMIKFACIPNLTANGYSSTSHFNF

[1] = substrate: O=[N+]([O-])O; test: Griess colorimetric nitrite assay, Michaelis-Menten nonlinear regression; type: biochemical, Saccharina japonica; conditions: 0.2 mM NADH, 100 mM HEPES pH 7.6, 10 μM FAD, 10 μM sodium molybdate, 10 mM MgCl2, 5 mM DTT, 24 °C, KNO3 0-20 mM, apparent

With `NC(=O)C1=CN([C@@H]2O[C@H](COP(=O)(O)OP(=O)(O)OC[C@H]3O[C@@H](n4cnc5c(N)ncnc54)[C@H](O)[C@@H]3O)[C@@H](O)[C@H]2O)C=CC1` [NADH] the “Griess colorimetric nitrite assay, single concentration” value (rSjNR-S; electron donor) was “the activity of rSjNR-S was lower than that of rSjNR-L”.

In the case of `O=[N+]([O-])O` [KNO3], the “Griess colorimetric nitrite assay, single concentration” value (rSjNR-S) is reported as “both rSjNR-L and rSjNR-S showed NR activity in vitro”.

B1: rSjNR-L (Saccharina japonica) (protein)
chain: MASGIQSCKPEKADASLVNIKGHDYYKDTFVPPAEDVTEIDPRDKGTPDDWVPRHPELVRLTGRHPFNVEPPVWRIKDHGFISPNSLHYVRNHGAVPRIVQGDSHKVRFGGAIDKPMEMSVEYIKANFKEITIPVTLVCAGNRRKEENMIKQGLGFSWGPAAVSNAMWTGVWVKDILKHIGIKSYEEGAKHVCFVGADKLPNGYYGTSIRREVCMDETADVLLAYKMNGKELSPDHGYPIRLIVPGYIGGRMIKWITDIEVTDLESDNHYHYFDNRVLPSQVDAEKAVAEGWWYKPPYIINELNINSAVVYPRHGEVLSLTSTDATYTVSGYAYGGGGIGLTRVEVSFDDGKTWELTEMCTPEKPRHMGRYWCWVFWEFKVDVLRMMKCEEIVCRAWQGQNTQPQNITWNLLGMMNNCWFRCKVHPTRDDRGALALTFEHPTMPGGQPGGWMVKGDSAVVAAAPVAKAASNGRKINLQEVQKHDNEDDCWIAVDGKVYDVTDFLDDHPGGGESITISAGQDSSDEFNALHSDKARAMLLDYYIGELDSSVEKPPKVIQEEVEVALNTRQKLAVPLIEKEVLSSDSRRFRFGLPTKDHKLGLPIGKHFFVSGRWNGEFVMRPYTPVTGDEVTGFVDLVIKVYTPNDRFPNGGKMSQLLDSLDIGDTIDIKGPVGEIAYLEPGQFLIKGKPRNASKLAMLAGGTGITPMYQVLKAVLNNPDDNTECSLIYANQTEDAILLRDELDAMAKAHPNQFNLWYTLDRPEEDWTYGKGFISAEMCKEQLPAASDDTIAFMCGPPAMIKFACIPNLTANGYSSTSHFNF
notes: E. coli BL21(DE3) pCold-SUMO-10His, Ni-NTA, SUMO tag cut off
B1 was tested, and the Km [1] was 0.42 (± 0.059) mM.
